Paper PMC6287599, “2,6-Bis(2-Benzimidazolyl)Pyridine (BBP) Is a Potent and Selective Inhibitor of Small Conductance Calcium-Activated Potassium (SK) Channels” (Frontiers in Pharmacology, 2018)
“Also recorded” adds a separate entry of the source.

Target: T1, Kir3.1+Kir3.4 (Homo sapiens, UniProt P48544+P48549)
T1 sequence (P48549 1-501): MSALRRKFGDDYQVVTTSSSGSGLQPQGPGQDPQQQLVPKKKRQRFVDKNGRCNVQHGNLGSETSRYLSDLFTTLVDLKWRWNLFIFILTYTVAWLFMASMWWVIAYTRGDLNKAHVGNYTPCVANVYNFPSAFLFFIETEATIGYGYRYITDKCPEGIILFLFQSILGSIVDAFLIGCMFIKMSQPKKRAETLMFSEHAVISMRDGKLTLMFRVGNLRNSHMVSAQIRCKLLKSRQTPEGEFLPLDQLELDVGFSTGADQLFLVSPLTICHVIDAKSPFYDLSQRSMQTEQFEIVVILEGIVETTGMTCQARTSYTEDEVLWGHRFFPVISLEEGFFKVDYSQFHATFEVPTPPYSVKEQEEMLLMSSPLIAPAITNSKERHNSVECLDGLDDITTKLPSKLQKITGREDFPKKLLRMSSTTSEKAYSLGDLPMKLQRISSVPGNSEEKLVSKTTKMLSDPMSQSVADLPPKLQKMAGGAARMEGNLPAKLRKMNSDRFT
T1 sequence (P48544 1-419): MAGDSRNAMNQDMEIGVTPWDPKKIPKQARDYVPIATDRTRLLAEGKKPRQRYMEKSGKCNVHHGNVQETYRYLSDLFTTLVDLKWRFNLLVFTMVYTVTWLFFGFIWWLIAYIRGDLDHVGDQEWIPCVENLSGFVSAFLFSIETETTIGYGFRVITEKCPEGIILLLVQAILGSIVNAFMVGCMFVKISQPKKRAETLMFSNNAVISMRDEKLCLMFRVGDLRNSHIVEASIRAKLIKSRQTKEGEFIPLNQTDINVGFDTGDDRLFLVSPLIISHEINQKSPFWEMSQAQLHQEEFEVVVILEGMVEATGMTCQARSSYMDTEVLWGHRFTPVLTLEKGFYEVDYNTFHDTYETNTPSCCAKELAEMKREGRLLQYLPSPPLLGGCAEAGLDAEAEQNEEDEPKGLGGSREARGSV
Test: Two-electrode voltage clamp in Xenopus laevis oocytes, Kir3.1+Kir3.4
Format: cell-based
Conditions: BBP 10 μM, TEVC, n = 5
Method: cRNA was prepared from linearized plasmids using the mMESSAGE mMACHINE T7 kit (Ambion, USA) and quantified by UV spectroscopy (NanoDrop, Thermo Scientific, Wilmington, USA). Xenopus laevis oocytes were acquired from EcoCyte Bioscience (Castrop-Rauxel, Germany). Oocytes were injected with 50 nL cRNA and currents were recorded after 2 days of incubation at 19°C. Currents were recorded at a sampling rate of 10 kHz using a TEVC amplifier (Dagan CA-1B; IL, USA), and borosilicate glass recording electrodes (Module Ohm, Herlev, Denmark), made with a DMZ Universal Puller (Zeitz Instruments, Martinsried, Germany) with a resistance of 0.5–1 MΩ when filled with 2 M KCl. Oocytes were superfused with Kulori (pH 7.4) solution containing NaCl 90 mM, KCl 4 mM, MgCl2 1 mM, CaCl2 1 mM, 4-(2-hydroxyethyl)-1-piperazineethanesulfonic acid 5 mM, and currents were elicited with the voltage protocols previously indicated (Skarsfeldt et al., [2016]), from a holding potential of −80 mV. […]
To assess the effect of BBP on other calcium-activated potassium channels (hBK, hSK3 WT, rSK3 H491N, and hIK), each individual current was first normalized to its cell size using membrane's capacitance (pA/pF) before statistical analysis. […] Statistical significance between saline and the effect of both BBP and the corresponding reference compound was determined for each channel using one-way ANOVA analysis. […]

c1cc(-c2nc3ccccc3[nH]2)nc(-c2nc3ccccc3[nH]2)c1 [BBP, 2,6-Bis(2-benzimidazolyl)pyridine]
Effect on Kir3.1+Kir3.4 current: did not have any effect; also recorded: did not significantly affect
